For orientation: logP means the decadic logarithm of the partition coefficient of the neutral form, usually between octanol and water. A higher logP goes with a more lipophilic compound. `Cc1ccc(C(=O)N(NC(=S)Nc2ccccc2)c2ccccc2)cc1` displayed a logP of 4.08.

The compound `CN(NC(=S)Nc1ccccc1)C(=O)c1ccc([N+](=O)[O-])cc1` had a lipophilicity (logP) of 2.68.

`COc1ccc(C(=O)N(C)NC(=S)Nc2ccccc2)cc1`: the lipophilicity (logP) is 2.56.

Compound `Cc1ccc(C(=O)N(C)NC(=S)Nc2ccccc2)cc1` yielded a log partition coefficient (logP) of 3.01.

The compound `NN(C(=O)c1ccc([N+](=O)[O-])cc1)c1ccccc1` came in with a logP of 2.48.

`CC=NN(C(=O)c1ccccc1)c1ccccc1` gave a logP of 2.76.

The compound `CN(N)C(=O)c1ccccc1` had a logP of 0.7.

In turn, `O=C(c1ccccc1)N(NC(=S)Nc1ccccc1)c1ccccc1` came in with a logP of 3.73.

With `COc1ccc(C(=O)N(C)N)cc1`, the logP amounted to 1.

Compound `CC=NN(C(=O)c1ccc(C)cc1)c1ccccc1` had a logP of 3.6.

The compound `O=C(c1ccc([N+](=O)[O-])cc1)N(NC(=S)Nc1ccccc1)c1ccccc1` returned a logP of 3.87.

On to `CN(NC(=S)Nc1ccccc1)C(=O)c1ccccc1`, for which the logP amounted to 2.47.

In the case of `CC=NN(C(=O)c1ccc(OC)cc1)c1ccccc1`, the lipophilicity (logP) is 3.18.

In the case of `NN(C(=O)c1ccccc1)c1ccccc1`, the logP was found to be 2.3.

Turning to `Cc1ccc(C(=O)N(C)N)cc1`, the logP was 1.36.

For the compound `CC=NN(C(=O)c1ccc([N+](=O)[O-])cc1)c1ccccc1`, the logP was 3.08.

Turning to `COc1ccc(C(=O)N(N)c2ccccc2)cc1`, the logP worked out at 2.83.

In turn, `CN(N)C(=O)c1ccc([N+](=O)[O-])cc1` registered a logP of 0.75.

Turning to `Cc1ccc(C(=O)N(N)c2ccccc2)cc1`, the logP amounted to 3.

Compound `COc1ccc(C(=O)N(NC(=S)Nc2ccccc2)c2ccccc2)cc1` came in with a logP of 3.94.

For the origin of these results see the OPERA property sets (Mansouri et al. 2018).
